Measurements as given in US20020183279A1, “Pharmaceutical composition containing viscoelastic substance and medication” (Koichiro TANAKA, priority 2001, published 2002).

Tested on: Bacillus substilis (ATCC6633)
Test: Inhibition circle (penicillin cup) measurement of antimicrobial activity changed by viscoelastic substance
Format: cell-based, Bacillus subtilis
Description: The activity of an antimicrobial agent changes depending upon a type of viscoelastic substance. Such a change was measured by using Bacillus substilis (ATCC6633 referred to as “B subtilis”) and the following viscoelastic substances: First, B. subtilis (0.1 mL of 1.4×10^8 CFU/ML) was spread on a 4% heart infusion medium. Subsequently, a penicillin cup was placed on the medium, and a test solution was poured in the cup. As test solutions, the following groups were used. 0.1 mL of an antimicrobial agent was added to a penicillin cup. Five concentrations from […] were prepared for each antimicrobial agent; 0.1 mL of a viscoelastic substance was added to a penicillin cup; After 0.1 mL of a viscoelastic substance was added to a penicillin cup and allowed to stand still and then 0.1 mL of 5 or 2.5 μg/mL antimicrobial agent was gently added to the viscoelastic substance layer; and 0.1 mL of a viscoelastic substance and 0.1 mL of 5 or 2.5 μg/mL antimicrobial agent were mixed and added to a penicillin cup. Each group was cultured in an incubator at 35° C. for 24 hours. The size of the inhibition circle of B. subtilis was measured. Based on the measurement results of the single antimicrobial agent group, a curve showing the size of inhibition circle versus the antimicrobial agent concentration (referred to as a standard curve) was obtained with respect to individual antimicrobial agents.

## CCn1cc(C(=O)O)c(=O)c2cc(F)c(N3CCNCC3)cc21 [NFLX, norfloxacin]
Layered group: NFLX layered on HL, OP or VC
  activity of the antimicrobial agent compared to the standard curve: lower than the standard
Layered group: NFLX layered on VC
  antimicrobial activity, ranking among viscoelastic substances: lowest
Mixture group: NFLX mixed with HL, OP or VC, FIG. 5
  bacterial proliferation suppression activity compared to the standard curve: lower than values of the standard curve but not so significant
